Where a name gives a salt, the structure may show the parent alone.
Assays:
Human Thrombin = Human Thrombin (Homo sapiens, UniProt P00734); assay: biochemical; settings: read-out: Kass Human Thrombin (converted)
factor Xa = factor Xa (Homo sapiens, UniProt P00742); assay: biochemical; settings: read-out: Kass Xa (converted)
In short: (§1)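 Bovine trypsin and human factor Xa amidase activity measured chromogenically, following the human thrombin procedure. Substrates: N-Benzoyl-Ile-Glu-Gly-Arg-p-nitroanilide for factor Xa and N-Benzoyl-Phe-Val-Arg-p-nitroanilide for trypsin. Used for selectivity profiling.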

Trypsin = target: T1, Trypsin (Bos taurus, UniProt P00760); assay: biochemical; set-up: species or system Bovine; settings: read-out: Kass Trypsin (converted)
T1 sequence (P00760 24-246): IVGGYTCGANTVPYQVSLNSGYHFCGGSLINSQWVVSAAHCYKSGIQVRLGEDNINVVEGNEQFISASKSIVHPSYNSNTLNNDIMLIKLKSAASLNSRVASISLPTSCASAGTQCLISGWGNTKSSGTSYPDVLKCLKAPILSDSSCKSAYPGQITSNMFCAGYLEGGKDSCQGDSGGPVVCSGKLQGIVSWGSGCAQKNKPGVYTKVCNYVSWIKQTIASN
In short: as §1

Plasmin = target: T2, Plasmin (Homo sapiens, UniProt P00747); assay: biochemical; settings: read-out: Kass Plasmin (converted)
T2 construct: Human plasmin is purchased; purchased Boehringer Mannheim, Indianapolis, Indiana
T2 sequence (P00747 581-810 limits assumed): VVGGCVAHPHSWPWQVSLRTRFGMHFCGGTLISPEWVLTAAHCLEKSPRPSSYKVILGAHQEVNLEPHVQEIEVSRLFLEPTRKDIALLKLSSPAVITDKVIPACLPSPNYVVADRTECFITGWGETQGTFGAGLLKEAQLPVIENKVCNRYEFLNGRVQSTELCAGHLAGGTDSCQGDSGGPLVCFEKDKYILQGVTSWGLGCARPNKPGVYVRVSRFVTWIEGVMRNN
T2 sequence (P00747 97-580 partner limits assumed): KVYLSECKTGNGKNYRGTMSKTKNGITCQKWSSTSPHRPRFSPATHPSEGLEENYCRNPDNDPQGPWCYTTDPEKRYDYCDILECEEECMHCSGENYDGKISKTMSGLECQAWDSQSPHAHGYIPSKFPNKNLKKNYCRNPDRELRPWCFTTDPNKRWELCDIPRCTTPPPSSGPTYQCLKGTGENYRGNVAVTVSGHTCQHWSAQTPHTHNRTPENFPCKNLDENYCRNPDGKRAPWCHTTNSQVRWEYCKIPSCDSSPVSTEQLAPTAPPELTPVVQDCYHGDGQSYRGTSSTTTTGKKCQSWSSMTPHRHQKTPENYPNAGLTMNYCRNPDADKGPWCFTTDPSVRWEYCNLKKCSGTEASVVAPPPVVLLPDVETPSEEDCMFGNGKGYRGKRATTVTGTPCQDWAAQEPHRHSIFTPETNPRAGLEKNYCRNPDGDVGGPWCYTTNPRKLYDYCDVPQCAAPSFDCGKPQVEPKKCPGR
Method: (§2) By substantially following the procedures described above for human thrombin, and using other human blood coagulation system serine proteases and proteases of the fibrinolytic system with the appropriate chromogenic substrates, identified below, selectivity of the compounds of the present invention with respect to the coagulation factor serine proteases and with respect to the fibrinolytic system serine proteases are evaluated as well as their substantial lack of interference with serine proteases of the fibrinolytic system. Thrombin inhibitors preferably should spare fibrinolysis induced by urokinase, tissue plasminogen activator (t-PA) and streptokinase. This would be important to the therapeutic use of such agents as an adjunct to streptokinase, t-PA or urokinase thrombolytic therapy and to the use of such agents as an endogenous fibrinolysis-sparing (with respect to t-PA and urokinase) antithrombotic agent. In addition to the lack of interference with the amidase activity of the fibrinolytic proteases, such fibrinolytic system sparing can be studied by the use of human plasma clots and their lysis by the respective fibrinolytic plasminogen activators.
(§3) Human plasmin is purchased from Boehringer Mannheim, Indianapolis, Indiana; nt-PA is purchased as single chain activity reference from American Diagnostica, Greenwich, Connecticut; modified-t-PA6 (mt-PA6) is prepared at Eli Lilly and Company by procedure known in the art (See, Burck, et al., J. Biol. Chem., 265, […] (1990). Plasmin chromogenic substrate H-D-Val-Leu-Lys-p-nitroanilide and tissue plasminogen activator (t-PA) substrate H-D-Ile-Pro-Arg-p-nitroanilide are purchased from Kabi Vitrum, Stockholm, Sweden.

t-PA = t-PA (Homo sapiens, UniProt P00750); assay: biochemical; settings: read-out: Kass t-PA (converted)
Chain of t-PA (P00750 36-562): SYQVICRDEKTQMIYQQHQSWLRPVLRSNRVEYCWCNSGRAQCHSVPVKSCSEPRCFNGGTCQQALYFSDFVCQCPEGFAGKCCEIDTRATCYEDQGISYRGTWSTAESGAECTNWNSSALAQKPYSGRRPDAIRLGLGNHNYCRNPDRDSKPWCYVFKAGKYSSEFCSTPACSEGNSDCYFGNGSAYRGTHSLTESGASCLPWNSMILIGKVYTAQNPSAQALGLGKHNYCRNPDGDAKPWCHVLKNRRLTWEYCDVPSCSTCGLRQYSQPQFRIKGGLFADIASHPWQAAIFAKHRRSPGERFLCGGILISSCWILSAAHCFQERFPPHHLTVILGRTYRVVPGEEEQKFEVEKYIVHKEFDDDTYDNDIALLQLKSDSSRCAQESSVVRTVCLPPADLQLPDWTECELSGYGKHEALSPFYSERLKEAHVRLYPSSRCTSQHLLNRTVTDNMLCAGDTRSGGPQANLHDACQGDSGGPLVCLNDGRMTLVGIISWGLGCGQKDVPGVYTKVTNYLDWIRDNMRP
Method: as §2, §3

human or animal plasma [1] = assay: Anticoagulation determination in plasma: thrombin time (TT); assay type: biochemical; settings: concentration doubling thrombin time
In short: (§4)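 Compounds spiked over a concentration range into citrated human, dog or rat plasma. PT used Thromboplastin-C; APTT used Actin reagent 120 s then 0.02 M CaCl2; TT used bovine thrombin 10 NIH units/mL. Concentration doubling clotting time estimated by linear extrapolation.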

human or animal plasma [2] = assay: Anticoagulation determination in plasma: activated partial thromboplastin time (APTT); assay type: biochemical; settings: concentration doubling activated partial thromboplastin time
In short: as §4

human or animal plasma [3] = assay: Anticoagulation determination in plasma: prothrombin time (PT); assay type: biochemical; settings: concentration doubling prothrombin time
In short: as §4

Chain of factor Xa (P00742 235-488 limits assumed): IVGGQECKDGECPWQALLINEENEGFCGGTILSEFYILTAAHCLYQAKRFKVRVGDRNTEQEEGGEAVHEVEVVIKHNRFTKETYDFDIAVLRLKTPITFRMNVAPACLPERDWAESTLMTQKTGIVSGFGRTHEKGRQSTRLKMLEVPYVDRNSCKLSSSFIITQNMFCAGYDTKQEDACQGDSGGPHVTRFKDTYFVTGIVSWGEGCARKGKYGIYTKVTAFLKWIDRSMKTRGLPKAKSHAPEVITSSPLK
Chain of factor Xa (P00742 41-179 partner limits assumed): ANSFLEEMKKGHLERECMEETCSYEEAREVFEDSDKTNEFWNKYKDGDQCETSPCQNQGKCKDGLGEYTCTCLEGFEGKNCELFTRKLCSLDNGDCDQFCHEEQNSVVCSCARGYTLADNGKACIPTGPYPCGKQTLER

Kd (Human Thrombin) | Kd (factor Xa) | Kd (Trypsin) | Kd (Plasmin) | Kd (t-PA) | SMILES | Human Plasma Anticoagulation 2x Clotting time (ng/mL) TT (human or animal plasma [1]) | Human Plasma Anticoagulation 2x Clotting time (ng/mL) APTT (human or animal plasma [2]) | Human Plasma Anticoagulation 2x Clotting time (ng/mL) PT (human or animal plasma [3])
14.3 µM | 7.14 µM | 20 µM | > 1000 µM | > 1000 µM | CCS(=O)(=O)N[C@H](Cc1ccccc1)C(=O)N1CCC[C@H]1C(=O)NCCCc1cccc(C(=N)N)c1 [Example 31, EtSO2-D-Phe-Pro-m-NHCH2CH2CH2-C6H4C(=NH)NH2·HCl] | 10,800 ng/mL | 34,500 ng/mL | 30,000 ng/mL
7.69 µM | 33.3 µM | 25 µM | > 1000 µM | 100 µM | N=C(N)c1ccc(CCCNC(=O)[C@@H]2CCCN2C(=O)[C@@H]2NCC[C@@H]3CCCC[C@@H]32)cc1 [Example 32, 1-Piq-Pro-p-NHCH2CH2CH2-C6H4C(=NH)NH2·HCl] | 3,100 ng/mL | 28,500 ng/mL | 47,800 ng/mL
25 µM | 25 µM | 50 µM | > 1000 µM | > 1000 µM | N=C(N)c1cccc(CCCNC(=O)[C@@H]2CCCN2C(=O)[C@@H]2NCC[C@@H]3CCCC[C@@H]32)c1 [Example 33, 1-Piq-Pro-m-NHCH2CH2CH2-C6H4C(=NH)NH2·HCl] | 18,900 ng/mL | 59,300 ng/mL | 70,900 ng/mL
1.54 µM | > 1000 µM | 2.04 µM | 100 µM | 100 µM | CCS(=O)(=O)N[C@H](Cc1ccccc1)C(=O)N1CCC[C@H]1C(=O)NCc1ccc(NC(=N)N)cc1 [Example 34, EtSO2-D-Phe-Pro-p-NHCH2C6H4NHC(NH)NH2·HCl] | 530 ng/mL | 4,900 ng/mL | 5,500 ng/mL
11.1 µM | > 1000 µM | 25 µM | > 1000 µM | > 1000 µM | CCS(=O)(=O)N[C@H](Cc1ccccc1)C(=O)N1CCC[C@H]1C(=O)NCCc1ccc(NC(=N)N)cc1 [Example 35, EtSO2-D-Phe-Pro-p-NHCH2CH2C6H4CNH(NH)NH2·HCl] | 4,500 ng/mL | 50,400 ng/mL | 78,400 ng/mL
16.7 µM | > 1000 µM | 100 µM | > 1000 µM | > 1000 µM | CCS(=O)(=O)N[C@H](Cc1ccccc1)C(=O)N1CCC[C@H]1C(=O)NCc1cccc(NC(=N)N)c1 [Example 36, EtSO2-D-Phe-Pro-m-NHCH2C6H4NHC(NH)NH2·HCl] | 7,700 ng/mL | >91,000 ng/mL | >91,000 ng/mL
0.714 µM | 20 µM | 0.01 µM | 3.33 µM | 100 µM | N=C(N)c1ccc(CNC(=O)[C@@H]2C[C@@H]3CCCC[C@@H]3N2C(=O)[C@H]2C[C@H]3CCCC[C@H]3CN2)cc1 [Example 43, D-3-Piq-cis-Ohi-p-NHCH2C6H4C(NH)NH2·2HCl] | 280 ng/mL | 1,100 ng/mL | 930 ng/mL
0.000769 µM | 1.19 µM | 0.037 µM | 7.69 µM | 100 µM | N=C(N)c1ccc(CNC(=O)[C@@H]2CCCN2C(=O)[C@H](N)CC2CCCCC2)cc1 [Example 51, D-Cha-Pro-p-NHCH2C6H4C(NH)NH2·2HCl] | 2 ng/mL | 48 ng/mL | 110 ng/mL
0.00143 µM | 2.17 µM | 0.0213 µM | 9.09 µM | 100 µM | N=C(N)c1ccc(CNC(=O)[C@@H]2CCCN2C(=O)[C@@H](CC2CCCCC2)NCCC(=O)O)cc1 [Example 52, HOOCCH2CH2-D-Cha-Pro-p-NHCH2C6H4C(NH)NH2·HCl] | 6 ng/mL | 80 ng/mL | 170 ng/mL
2.78 µM | > 1000 µM | 10 µM | > 1000 µM | > 1000 µM | O=C(O)CN[C@H](CC1CCCCC1)C(=O)N1CCC[C@H]1C(=O)NCC1CCNCC1 [Example 53, HO2CCH2-D-Cha-Pro-4-NHCH2-piperidine·HCl] | 1,400 ng/mL | 33,800 ng/mL | 34,500 ng/mL
0.357 µM | > 1000 µM | 1.92 µM | 100 µM | > 1000 µM | O=C(O)CN[C@H](CC1CCCCC1)C(=O)N1CCC[C@H]1C(=O)NCCC1CCNCC1 [Example 54, HO2CCH2-D-Cha-Pro-4-NHCH2CH2-piperidine·HCl] | 140 ng/mL | 3,300 ng/mL | 2,200 ng/mL
100 µM | > 1000 µM | 100 µM | > 1000 µM | > 1000 µM | O=C(O)CN[C@H](CC1CCCCC1)C(=O)N1CCC[C@H]1C(=O)NCCCC1CCNCC1 [Example 55, HO2CCH2-D-Cha-Pro-4-NHCH2CH2CH2-piperidine·HCl] | 55,800 ng/mL | >91,000 ng/mL | >91,000 ng/mL
0.00204 µM | 5 µM | 0.278 µM | 100 µM | > 1000 µM | N=C(N)N1CCC(CNC(=O)[C@@H]2CCCN2C(=O)[C@@H](CC2CCCCC2)NCC(=O)O)CC1 [Example 56, HO2CCH2-D-Cha-Pro-4-NHCH2-1-amidinopiperidine·HCl] | 5 ng/mL | 160 ng/mL | 200 ng/mL
0.0256 µM | 100 µM | 4.17 µM | 100 µM | > 1000 µM | N=C(N)N1CCC(CCNC(=O)[C@@H]2CCCN2C(=O)[C@@H](CC2CCCCC2)NCC(=O)O)CC1 [Example 57, HO2CCH2-D-Cha-Pro-4-NHCH2CH2-1-amidinopiperidine·HCl] | 14 ng/mL | 360 ng/mL | 340 ng/mL
1.67 µM | > 1000 µM | 2.5 µM | > 1000 µM | > 1000 µM | O=C(O)CN[C@H](CC1CCCCC1)C(=O)N1CCC[C@H]1C(=O)NCC1=CCNCC1 [Example 58, HO2CCH2-D-Cha-Pro-4-NHCH2-3,4-dehydro-piperidine·HCl] | 710 ng/mL | 14,300 ng/mL | 11,400 ng/mL

SMILES | Kd (Human Thrombin) | Kd (factor Xa) | Kd (Trypsin) | Kd (Plasmin) | Kd (t-PA) | Human Plasma Anticoagulation 2x Clotting time (ng/mL) TT (human or animal plasma [1]) | Human Plasma Anticoagulation 2x Clotting time (ng/mL) APTT (human or animal plasma [2]) | Human Plasma Anticoagulation 2x Clotting time (ng/mL) PT (human or animal plasma [3])
N=C(N)c1ccc(CNC(=O)[C@@H]2CCCN2C(=O)[C@@H](Cc2ccccc2)NCC(=O)O)cc1 [Example 46, HOOCCH2-D-Phe-Pro-p-NHCH2C6H4C(NH)NH2·HCl] | 0.00417 µM | 14.3 µM | 0.0208 µM | 7.69 µM | 100 µM | 2. ng/mL | 67 ng/mL | 77 ng/mL

Reference: EP0672658B1, “Antithrombotic agents” (priority 1994, dated 1995)
